This is an account of results in PMC3761942 (Bioorganic & medicinal chemistry, 2013).

For one data set, the target named is guanase. The note with it: in tissue cultures; cited from earlier work.
Data set [1] in a line: Chemical stability in aqueous medium. It counts as physicochemical.
Data set [2] addresses T1, guanase from rabbit liver (Oryctolagus cuniculus, UniProt G1T386).
T1 sequence (G1T386 1-454): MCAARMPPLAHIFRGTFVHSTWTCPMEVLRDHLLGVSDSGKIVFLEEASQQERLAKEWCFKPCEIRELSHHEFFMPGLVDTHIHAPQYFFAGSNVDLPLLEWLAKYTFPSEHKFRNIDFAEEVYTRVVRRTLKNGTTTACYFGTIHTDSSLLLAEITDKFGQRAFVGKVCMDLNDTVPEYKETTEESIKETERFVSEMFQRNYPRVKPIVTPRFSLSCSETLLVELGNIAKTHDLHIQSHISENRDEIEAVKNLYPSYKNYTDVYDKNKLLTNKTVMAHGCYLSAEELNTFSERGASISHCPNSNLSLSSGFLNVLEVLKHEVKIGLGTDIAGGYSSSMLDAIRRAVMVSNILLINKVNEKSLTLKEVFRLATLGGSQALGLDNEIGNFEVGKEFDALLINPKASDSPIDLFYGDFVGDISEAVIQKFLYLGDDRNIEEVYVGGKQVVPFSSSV
In kind it is biochemical.

Entries after “also recorded” stand apart in the source; their conditions may differ.

For `O=C1NC(O)CNc2nc[nH]c21` (centres unmarked) [Azepinomycin], the IC50 – broadly, the concentration needed to halve the response being measured – at guanase was around 5 µM.
In the case of `O=C1NCC(O)Nc2c1ncn2Cc1ccccc1` (centres unmarked) [Compound 1, 3-Benzyl-5-hydroxy-4,5,6,7-tetrahydroimidazo[4,5-e] [1,4]diazepin-8(3H)-one], the “Stability in aqueous acidic environment” value in data set [1] (aqueous acidic environment (1N HCl)) is “reasonably stable”. In addition, the “Stability under neutral conditions” value in data set [1] (neutral aqueous medium) is “quite unstable and decomposed; also recorded: decomposes in neutral aqueous medium over time”.
`COC1CNC(=O)c2nc[nH]c2N1Cc1ccccc1` (centres unmarked) [Compound 9, 4-Benzyl-5-methoxy-4,5,6,7-tetrahydroimidazo[4,5-e][1,4]diazepin-8(3H)-one]: the Ki (commonly a measure of affinity in units of concentration, obtained from inhibition or displacement) in data set [2] (Ki) is around 8 µM.
With `Nc1nc2nc[nH]c2c(=O)[nH]1` [guanine, reference compound], in data set [2] (read-out: KM of enzyme with guanine as substrate, 25 °C, pH 7.4), the Km (usually the substrate concentration at which the rate is half of its maximum) is 5.5 µM.
